Assay results as given in patent US20200239530A1, “COMPOUNDS AND METHODS OF MODULATING PROTEIN DEGRADATION” (Vividion Therapeutics, Inc., priority 2017, published 2020).

Key:
[1] = molecular target: T1, DIP2A Disco-interacting protein 2 homolog A (Homo sapiens, UniProt Q14689); test: Cysteine liganding, probe competition; type: binding; conditions: for Liganded: DIP2A Res# 6, uniprot Q14689
T1 construct: 200 μL of lysate containing 5 mg/ml proteome was treated with 2 μL of 100× compound stock; endogenous in cells
T1 sequence (Q14689 whole entry): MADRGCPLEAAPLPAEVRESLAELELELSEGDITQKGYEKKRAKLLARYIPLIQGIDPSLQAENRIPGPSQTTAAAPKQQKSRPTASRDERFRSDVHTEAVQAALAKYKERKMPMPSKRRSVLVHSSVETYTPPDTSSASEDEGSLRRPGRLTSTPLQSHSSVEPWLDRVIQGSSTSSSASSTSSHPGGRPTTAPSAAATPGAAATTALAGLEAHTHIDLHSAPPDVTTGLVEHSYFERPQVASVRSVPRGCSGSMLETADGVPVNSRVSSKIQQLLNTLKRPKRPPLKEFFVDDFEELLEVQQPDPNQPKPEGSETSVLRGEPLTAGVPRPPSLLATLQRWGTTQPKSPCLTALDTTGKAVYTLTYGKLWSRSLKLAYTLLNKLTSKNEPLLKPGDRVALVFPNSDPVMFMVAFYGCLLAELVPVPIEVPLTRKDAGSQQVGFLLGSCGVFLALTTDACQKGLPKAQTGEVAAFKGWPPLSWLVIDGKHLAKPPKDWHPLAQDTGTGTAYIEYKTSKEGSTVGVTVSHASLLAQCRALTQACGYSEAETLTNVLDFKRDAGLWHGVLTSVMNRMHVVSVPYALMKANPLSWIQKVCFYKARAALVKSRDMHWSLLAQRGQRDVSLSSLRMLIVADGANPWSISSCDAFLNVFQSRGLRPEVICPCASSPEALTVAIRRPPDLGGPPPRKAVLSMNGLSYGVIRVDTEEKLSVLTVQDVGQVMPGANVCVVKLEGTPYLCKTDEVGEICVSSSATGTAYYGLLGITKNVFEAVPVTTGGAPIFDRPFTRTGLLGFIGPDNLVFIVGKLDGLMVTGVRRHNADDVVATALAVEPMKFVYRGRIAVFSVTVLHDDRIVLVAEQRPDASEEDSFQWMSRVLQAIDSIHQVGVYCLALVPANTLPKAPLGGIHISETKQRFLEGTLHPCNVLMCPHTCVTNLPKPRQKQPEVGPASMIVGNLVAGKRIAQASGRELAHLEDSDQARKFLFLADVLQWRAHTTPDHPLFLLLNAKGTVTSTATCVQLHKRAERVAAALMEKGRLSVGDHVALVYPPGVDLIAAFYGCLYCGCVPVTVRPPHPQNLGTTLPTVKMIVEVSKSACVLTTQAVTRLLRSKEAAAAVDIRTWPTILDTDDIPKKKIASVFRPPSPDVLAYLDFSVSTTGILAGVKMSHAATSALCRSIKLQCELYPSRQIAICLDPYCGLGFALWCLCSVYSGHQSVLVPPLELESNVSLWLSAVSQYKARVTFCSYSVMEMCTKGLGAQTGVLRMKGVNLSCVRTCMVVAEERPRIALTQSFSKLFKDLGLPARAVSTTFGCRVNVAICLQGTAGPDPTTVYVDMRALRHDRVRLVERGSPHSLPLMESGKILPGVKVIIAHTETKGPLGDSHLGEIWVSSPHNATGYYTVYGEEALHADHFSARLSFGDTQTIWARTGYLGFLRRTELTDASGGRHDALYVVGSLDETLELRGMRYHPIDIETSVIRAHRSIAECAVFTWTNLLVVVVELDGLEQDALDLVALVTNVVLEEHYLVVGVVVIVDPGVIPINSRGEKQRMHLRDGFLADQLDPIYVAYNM
How it was run: (§1)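 Probe competition in native proteome: 5 mg/ml lysate, compound 1 hr 25° C, then desthiobiotin iodoacetamide (10 mM stock) 1 hr 25° C; acetone ppt, urea/DTT reduction, iodoacetamide alkylation, trypsin, streptavidin pull-down.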

[2] = molecular target: T2, RRP8 Ribosomal RNA-processing protein 8 (Homo sapiens, UniProt O43159); test: Cysteine liganding, probe competition; type: binding
T2 construct: Cells were resuspended in cold PBS on ice and sonicated with a probe sonicator to achieve lysis; endogenous in cells
T2 sequence (O43159 1-456): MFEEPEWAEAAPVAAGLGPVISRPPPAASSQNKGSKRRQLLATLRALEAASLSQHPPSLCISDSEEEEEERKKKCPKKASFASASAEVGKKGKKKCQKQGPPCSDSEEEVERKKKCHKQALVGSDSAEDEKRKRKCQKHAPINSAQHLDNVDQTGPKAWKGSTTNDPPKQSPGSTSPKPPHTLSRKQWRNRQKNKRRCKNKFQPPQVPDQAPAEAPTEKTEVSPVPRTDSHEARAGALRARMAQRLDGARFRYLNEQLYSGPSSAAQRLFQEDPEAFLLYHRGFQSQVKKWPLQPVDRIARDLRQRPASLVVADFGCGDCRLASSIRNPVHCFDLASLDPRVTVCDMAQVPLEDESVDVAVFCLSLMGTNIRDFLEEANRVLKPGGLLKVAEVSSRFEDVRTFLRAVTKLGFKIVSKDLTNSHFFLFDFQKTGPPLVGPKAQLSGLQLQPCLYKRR
How it was run: as §1

SMILES	Liganded [1]	Liganded ([2]; RRP8 Res# 451, uniprot O43159)	100 Max ([1]; uniprot Q14689)	100 ave ([1]; uniprot Q14689)	500 Max ([1]; uniprot Q14689)	500 ave ([1]; uniprot Q14689)	100 Max ([2]; uniprot O43159)	100 ave ([2]; uniprot O43159)	500 Max ([2]; uniprot O43159)	500 ave ([2]; uniprot O43159)
COc1ccc2c(c1)CCCN2C(=O)CCl [KB02]	YES	YES	–	–	–	–	–	–	–	–
O=C(CCl)Nc1cc(C(F)(F)F)cc(C(F)(F)F)c1 [KBO3]	YES	–	39.34	39.34	91.21	91.21	14.62	−3.99	57.64	48.93
